For the assay, the target named is T1, human calcium receptor (Homo sapiens, UniProt P41180).
T1 construct: expressed in transfected cells; host or cells: cell strain derived from rat adrenal, co-transformed with luciferase cDNA
T1 sequence (P41180 20-1078): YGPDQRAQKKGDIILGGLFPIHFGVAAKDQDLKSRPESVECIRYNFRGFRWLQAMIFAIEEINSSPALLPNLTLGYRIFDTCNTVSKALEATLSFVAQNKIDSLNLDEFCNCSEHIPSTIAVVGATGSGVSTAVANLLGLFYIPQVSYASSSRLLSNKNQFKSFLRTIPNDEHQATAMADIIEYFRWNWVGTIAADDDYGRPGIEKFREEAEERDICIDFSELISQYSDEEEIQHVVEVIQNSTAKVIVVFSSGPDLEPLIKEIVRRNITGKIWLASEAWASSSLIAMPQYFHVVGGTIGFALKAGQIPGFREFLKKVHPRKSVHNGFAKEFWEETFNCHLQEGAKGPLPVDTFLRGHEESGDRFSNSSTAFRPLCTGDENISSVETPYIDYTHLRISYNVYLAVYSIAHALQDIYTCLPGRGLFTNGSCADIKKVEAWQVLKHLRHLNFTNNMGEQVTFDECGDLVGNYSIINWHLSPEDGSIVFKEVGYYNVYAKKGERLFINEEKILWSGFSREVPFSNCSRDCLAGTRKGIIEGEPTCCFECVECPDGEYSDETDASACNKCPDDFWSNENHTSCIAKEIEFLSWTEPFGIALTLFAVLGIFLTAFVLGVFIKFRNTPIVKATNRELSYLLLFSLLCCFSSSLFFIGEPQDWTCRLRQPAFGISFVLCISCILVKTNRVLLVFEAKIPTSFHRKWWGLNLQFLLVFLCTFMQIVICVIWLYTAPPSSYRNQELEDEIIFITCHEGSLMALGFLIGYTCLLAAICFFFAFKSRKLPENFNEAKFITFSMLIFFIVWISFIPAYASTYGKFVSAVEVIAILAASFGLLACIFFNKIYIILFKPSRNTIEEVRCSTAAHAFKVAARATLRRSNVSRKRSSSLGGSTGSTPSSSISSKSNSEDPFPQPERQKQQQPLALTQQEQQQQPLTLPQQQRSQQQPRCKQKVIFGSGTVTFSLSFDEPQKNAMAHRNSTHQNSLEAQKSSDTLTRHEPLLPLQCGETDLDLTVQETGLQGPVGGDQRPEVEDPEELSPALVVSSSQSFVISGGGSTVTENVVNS
Put plainly: Evaluation of antagonistic action on calcium receptor using reporter gene (luciferase). The format is cell-based. The note with it: transformed rat adrenal derived cells, 5 mM calcium chloride, culture 4 hrs, luciferase activity; read-out: Reporter gene assay (IC50, concentration showing 50% inhibitory rate). Put shortly:
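Rat adrenal-derived cells transfected with luciferase and human calcium receptor cDNA, in F12 with 0.5% dialyzed horse serum and 0.25% dialyzed fetal bovine serum. Luciferase luminescence gave % inhibition vs control and blank; IC50 at 50% inhibition.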
(Reporter assays use an easily measured gene product as a stand-in for the process of interest.)
Turning to `Cc1cc(-c2ccccc2[C@@H](C)OC[C@H](O)CNC(C)(C)Cc2ccc(C)c(C(F)(F)F)c2)ccc1C(=O)O` [Example 1-104, 2′-[1-[(2R)-3-[[1-(3-trifluoromethyl-4-methylphenyl)-2-methylpropan-2-yl]amino]-2-hydroxypropoxy]ethyl]-3-methylbiphenyl-4-carboxylic acid], the IC50 is 0.028 µM. For `Cc1cc(-c2ccccc2[C@@H](C)OC[C@H](O)CNC(C)(C)Cc2ccc(Cl)c(F)c2)ccc1C(=O)O` [Example 1-105] the value was 0.009 µM; for `C[C@@H](OC[C@H](O)CNC(C)(C)Cc1ccc(Cl)c(F)c1)c1ccccc1-c1ccc(C(=O)O)c(CO)c1` [Example 1-106, 2′-[1-[(2R)-3-[[1-(4-chloro-3-fluorophenyl)-2-methylpropan-2-yl]amino]-2-hydroxypropoxy]ethyl]-3-(hydroxymethyl)biphenyl-4-carboxylic acid], 0.02 µM.

Turning to `C[C@@H](OC[C@H](O)CNC(C)(C)Cc1ccc(Cl)c(F)c1)c1ccccc1-c1ccc(C(=O)O)c(C(=O)O)c1` [Example 1-107, 2′-[1-[(2R)-3-[[1-(4-chloro-3-fluorophenyl)-2-methylpropan-2-yl]amino]-2-hydroxypropoxy]ethyl]-3-carboxylphenyl-4-carboxylic acid], the IC50 came to 0.2 µM.

As to `Cc1ccc(CC(C)(C)NC[C@@H](O)CO[C@H](C)c2ccccc2-c2ccc(C(=O)O)c(C)c2)cc1F` [Example 1-108], the IC50 worked out at 0.014 µM. For `Cc1cc(-c2ccccc2[C@@H](C)OC[C@H](O)CNC(C)(C)Cc2ccc(Cl)cc2F)ccc1C(=O)O` [Example 1-109] the value was 0.015 µM; for `Cc1cc(-c2ccccc2[C@@H](C)OC[C@H](O)CNC(C)(C)Cc2ccc(Cl)cc2F)ccc1C(=O)O` [Example 1-110], 0.026 µM. As to `COC(=O)c1ccc(Oc2ccccc2C(C)OC[C@H](O)CNC(C)(C)Cc2ccc3ccccc3c2)cc1` (stereo partly drawn) [Example 2-3, methyl 4-[2-[1-[(2R)-3-[[1-(naphthalen-2-yl)-2-methylpropan-2-yl]amino]-2-hydroxypropoxy]ethyl]phenoxy]benzoate], the IC50 is 0.071 µM. In the case of `CC(OC[C@H](O)CNC(C)(C)Cc1ccc2ccccc2c1)c1ccccc1Oc1ccc(C(=O)O)cc1` (stereo partly drawn) [Example 2-4, 4-[2-[1-[(2R)-3-[[1-(naphthalen-2-yl)-2-methylpropan-2-yl]amino]-2-hydroxypropoxy]ethyl]phenoxy]benzoic acid], the IC50 was 0.01 µM. Take `CC(OC[C@H](O)CNC(C)(C)Cc1ccc(Cl)cc1F)c1ccccc1Oc1ccc(C(=O)O)cc1` (stereo partly drawn) [Example 2-6, 4-[2-[1-[(2R)-3-[[1-(4-chloro-2-fluorophenyl)-2-methylpropan-2-yl]amino]-2-hydroxypropoxy]ethyl]phenoxy]benzoic acid]: the IC50 is 0.022 µM. For `Cc1ccc(CC(C)(C)NC[C@@H](O)COC(C)c2ccccc2Oc2ccc(C(=O)O)cc2)cc1F` (stereo partly drawn) [Example 2-7, 4-[2-[1-[(2R)-3-[[1-(3-fluoro-4-methylphenyl)-2-methylpropan-2-yl]amino]-2-hydroxypropoxy]ethyl]phenoxy]benzoic acid] the value was 0.017 µM.

`Cc1ccc(CC(C)(C)NC[C@@H](O)COC(C)c2ccccc2Oc2cccc(C(=O)O)c2)cc1F` (stereo partly drawn) [Example 2-8, 3-[2-[1-[(2R)-3-[[1-(3-fluoro-4-methylphenyl)-2-methylpropan-2-yl]amino]-2-hydroxypropoxy]ethyl]phenoxy]benzoic acid]: the IC50 worked out at 0.054 µM. In the case of `CC(OC[C@H](O)CNC(C)(C)Cc1ccc2ccccc2c1)c1ccccc1C=Cc1ccc(C(=O)O)cc1` (stereo partly drawn) [Example 2-9, 4-[2-[2-[1-[(2R)-3-[[1-(naphthalen-2-yl)-2-methylpropan-2-yl]amino]-2-hydroxypropoxy]ethyl]phenyl]vinyl]benzoic acid] it was 0.016 µM; in that of `CC(OC[C@H](O)CNC(C)(C)Cc1ccc2ccccc2c1)c1ccccc1Sc1cccc(C(=O)O)c1` (stereo partly drawn) [Example 2-10, 3-[2-[1-[(2R)-3-[[1-(naphthalen-2-yl)-2-methylpropan-2-yl]amino]-2-hydroxypropoxy]ethyl]phenylthio]benzoic acid], 0.027 µM. In the case of `Cc1ccc(CC(C)(C)NC[C@@H](O)COC(C)c2ccccc2C=Cc2ccc(C(=O)O)cc2)cc1F` (stereo partly drawn) [Example 2-11, 4-[2-[2-[1-[(2R)-3-[[1-(3-fluoro-4-methylphenyl)-2-methylpropan-2-yl]amino]-2-hydroxypropoxy]ethyl]phenyl]vinyl]benzoic acid] it was 0.021 µM; in that of `Cc1ccc(CC(C)(C)NC[C@@H](O)COC(C)c2ccccc2Oc2c(C)cc(C(=O)O)cc2C)cc1F` (stereo partly drawn) [Example 2-12, 4-[2-[1-[(2R)-3-[[1-(3-fluoro-4-methylphenyl)-2-methylpropan-2-yl]amino]-2-hydroxypropoxy]ethyl]phenoxy]-3,5-dimethylbenzoic acid], 0.005 µM; in that of `Cc1cc(C(=O)O)cc(C)c1Oc1ccccc1C(C)OC[C@H](O)CNC(C)(C)Cc1ccc(Cl)cc1F` (stereo partly drawn) [Example 2-13, 4-[2-[1-[(2R)-3-[[1-(4-chloro-2-fluorophenyl)-2-methylpropan-2-yl]amino]-2-hydroxypropoxy]ethyl]phenoxy]-3,5-dimethylbenzoic acid], 0.022 µM. As to `C[C@@H](OC[C@H](O)CNC(C)(C)Cc1ccc2ccccc2c1)c1ccccc1Cc1ccc(C(=O)O)cc1` [Example 2-14, 4-[2-[1-[(2R)-3-[[1-(naphthalen-2-yl)-2-methylpropan-2-yl]amino]-2-hydroxypropoxy]ethyl]benzyl]benzoic acid], the IC50 turned out to be 0.053 µM.

With `C[C@@H](OC[C@H](O)CNC(C)(C)Cc1ccc2ccccc2c1)c1ccccc1Cc1cccc(C(=O)O)c1` [Example 2-15, 3-[2-[1-[(2R)-3-[[1-(naphthalen-2-yl)-2-methylpropan-2-yl]amino]-2-hydroxypropoxy]ethyl]benzyl]benzoic acid], the IC50 was 0.016 µM. With `CC(OC[C@H](O)CNC(C)(C)Cc1ccc2ccccc2c1)c1ccccc1Sc1ccc(C(=O)O)cc1` (stereo partly drawn) [Example 2-16, 4-[2-[1-[(2R)-3-[[1-(naphthalen-2-yl)-2-methylpropan-2-yl]amino]-2-hydroxypropoxy]ethyl]phenylthio]benzoic acid], the IC50 stood at 0.014 µM. In the case of `CC(OC[C@H](O)CNC(C)(C)Cc1ccc2ccccc2c1)c1ccccc1[S+]([O-])c1ccc(C(=O)O)cc1` (stereo partly drawn) [Example 2-17, 4-[2-[1-[(2R)-3-[[1-(naphthalen-2-yl)-2-methylpropan-2-yl]amino]-2-hydroxypropoxy]ethyl]phenylsulfinyl]benzoic acid] it was 0.148 µM; in that of `CC(OC[C@H](O)CNC(C)(C)Cc1ccc2ccccc2c1)c1ccccc1S(=O)(=O)c1ccc(C(=O)O)cc1` (stereo partly drawn) [Example 2-18, 4-[2-[1-[(2R)-3-[[1-(naphthalen-2-yl)-2-methylpropan-2-yl]amino]-2-hydroxypropoxy]ethyl]phenylsulfonyl]benzoic acid], 0.236 µM; in that of `CC(OC[C@H](O)CNC(C)(C)Cc1ccc2ccccc2c1)c1ccccc1NCc1ccc(C(=O)O)cc1` (stereo partly drawn) [Example 2-19, 4-[[2-[1-[(2R)-3-[[1-(naphthalen-2-yl)-2-methylpropan-2-yl]amino]-2-hydroxypropoxy]ethyl]phenylamino]methyl]benzoic acid], 0.029 µM.

In the case of `CC(OC[C@H](O)CNC(C)(C)Cc1ccc2ccccc2c1)c1ccccc1OCc1ccccc1C(=O)O` (stereo partly drawn) [Example 2-20, 2-[[2-[1-[(2R)-3-[[1-(naphthalen-2-yl)-2-methylpropan-2-yl]amino]-2-hydroxypropoxy]ethyl]phenoxy]methyl]benzoic acid], the IC50 was 0.02 µM. In the case of `CC(OC[C@H](O)CNC(C)(C)Cc1ccc2ccccc2c1)c1ccccc1OCc1cccc(C(=O)O)c1` (stereo partly drawn) [Example 2-21, 3-[[2-[1-[(2R)-3-[[1-(naphthalen-2-yl)-2-methylpropan-2-yl]amino]-2-hydroxypropoxy]ethyl]phenoxy]methyl]benzoic acid], the IC50 stood at 0.017 µM. For `C[C@@H](OC[C@H](O)CNC(C)(C)Cc1ccc2ccccc2c1)c1ccccc1OCc1ccc(C(=O)O)cc1` [Example 2-22, 4-[[2-[1-[(2R)-3-[[1-(naphthalen-2-yl)-2-methylpropan-2-yl]amino]-2-hydroxypropoxy]ethyl]phenoxy]methyl]benzoic acid] the value was 0.017 µM.

The values are drawn from patent publication US7304174B2, “CaSR antagonist” (Japan Tobacco Inc., priority 2003, dated 2007).
